In paper PMC9126592, “sp^2-Iminosugars targeting human lysosomal β-hexosaminidase as pharmacological chaperone candidates for late-onset Tay-Sachs disease” (Journal of Enzyme Inhibition and Medicinal Chemistry, 2022):

Key:
Assay type in all cases: biochemical
[1] = molecular target: β-hexosaminidase from human placenta; experiment: Commercial enzyme inhibition assay, β-hexosaminidase from human placenta; conditions: mean ± SD (n = 3); competitive
Experimental: (§1) Inhibition constant (Ki) values were determined by spectrophotometrically measuring the residual hydrolytic activities of the glycosidases against the respective o- (for β-galactosidase from E. coli) or p-nitrophenyl α- or β-D-glycopyranoside (for other glycosidases) in the presence of the iminosugars. Each assay was performed in phosphate buffer or phosphate-citrate buffer (for α- or β-mannosidase, amyloglucosidase or β-N-acetylglucosaminidase) at the optimal pH for the enzymes. The reactions were initiated by addition of the enzyme to a solution of the substrate in the absence or presence of various inhibitor concentrations. The mixture was incubated for 10–30 min at 37 °C or 55 °C (for amyloglucosidase) and the reaction was quenched by addition of 1 m Na2CO3. Reaction times were appropriate to obtain 10%–20% conversion of the substrate in order to achieve linear rates. The absorbance of the resulting mixture was determined at 405 nm. Approximate values of Ki were determined using a fixed concentration of substrate (around the KM value for the different glycosidases) and various inhibitor concentrations. Full Ki determinations and the enzyme inhibition mode were determined from the slope of Lineweaver-Burk plots and double reciprocal analysis.

[2] = molecular target: T1, recombinant human O-GlcNAcase (hOGA) (Homo sapiens, UniProt O60502); experiment: Inhibition of recombinant human O-GlcNAcase (resorufin N-acetyl-β-D-glucosaminide); conditions: for Ki: recombinant human O-GlcNAcase, read-out: Ki OGA
T1 construct: the N-terminal region of hOGA, comprising amino acids 11–396; the C-terminal region, comprising amino acids 535–715; His6 (N); His6 followed by 3C-protease cleavage site (N); made in house; host or cells: E. coli Bl21(DE3)-Gold
T1 sequence (O60502 11-396): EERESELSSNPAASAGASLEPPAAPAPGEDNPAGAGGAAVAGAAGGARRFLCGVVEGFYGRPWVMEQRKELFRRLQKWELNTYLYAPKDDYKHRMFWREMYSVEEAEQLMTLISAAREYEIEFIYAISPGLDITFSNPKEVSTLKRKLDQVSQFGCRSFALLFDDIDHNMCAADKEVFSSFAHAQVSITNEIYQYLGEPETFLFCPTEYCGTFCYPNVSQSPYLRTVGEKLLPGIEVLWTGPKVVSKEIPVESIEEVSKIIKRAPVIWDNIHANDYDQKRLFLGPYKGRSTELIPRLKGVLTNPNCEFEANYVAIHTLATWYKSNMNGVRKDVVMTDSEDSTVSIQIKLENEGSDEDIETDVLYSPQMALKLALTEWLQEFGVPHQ
T1 sequence (O60502 535-715): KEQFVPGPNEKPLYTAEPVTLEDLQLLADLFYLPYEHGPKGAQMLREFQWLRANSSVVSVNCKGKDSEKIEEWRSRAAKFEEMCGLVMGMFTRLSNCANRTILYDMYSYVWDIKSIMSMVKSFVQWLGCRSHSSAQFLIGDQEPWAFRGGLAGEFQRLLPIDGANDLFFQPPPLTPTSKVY
Description: The gene of the longest isoform of hOGA (hOGA-L; Uniprot Accession number: O60502) was synthesised in a codon-optimised form for recombinant expression in Escherichia coli. The successful expression construct encoded the N-terminal region of hOGA, comprising amino acids 11–396, and the C-terminal region, comprising amino acids 535–715. The N-terminal construct was cloned in the vector pACYC-Duet (Millipore) using the sequence and ligation-independent cloning method in frame with an N-terminal His6 tag. The C-terminal construct was cloned into the vector pET-YSBLIC3C27 with an N-terminal His6 tag followed by a 3 C-protease cleavage site using the same method. The nucleotide sequences of all made constructs were confirmed by sequencing. Both vectors were simultaneously transformed into E. coli Bl21(DE3)-Gold (Agilent) for subsequent protein expression. Cells were grown in 2 L TB-medium to an OD600 of ∼1.0 and protein synthesis was then induced by adding IPTG to a final concentration of 0.1 mM. Protein expression was carried out at 16 °C with an induction time of 20 h. The cells were harvested by centrifugation at 4,500 × g for 20 min, flash frozen and stored at −20 °C until required. For purification of the hOGA complex, cells were resuspended in 50 mM HEPES pH 7.0, 750 mM NaCl, 20 mM imidazole, and 0.5 mM DTT (resuspension buffer). Cells were lysed using a French Press at 25 kPsi. The lysate was cleared by centrifugation at 50,000 g for 1 h, and the supernatant was passed through a 10 ml HisTrap FF column (GE Healthcare) pre-equilibrated with resuspension buffer. The bound hOGA was purified by gradient elution over 10 column volumes using 0% to 50% of elution buffer (50 mM HEPES pH 7.0, 750 mM NaCl, 500 mM imidazole and 0.5 mM DTT). hOGA-containing fractions were combined, concentrated by ultrafiltration using Vivaspin columns (Sartorius) with a molecular weight cut-off (MWCO) of 30 kDa, and applied to a Superdex S200 column (GE Healthcare) pre-equilibrated with size-exclusion buffer (10 mM HEPES pH 7.0, 250 mM NaCl, 1 mM DTT). Fractions corresponding to the dimeric form of hOGA were combined and concentrated to 20 mg/mL by ultrafiltration with a Vivaspin (MWCO: 30 kDa) column, flash frozen using liquid nitrogen, and stored at −80 °C until required.
Inhibition assays were run at 0.2 nM [hOGA] in the same buffer, in the presence or absence of various concentrations of inhibitors and at a fixed substrate concentration of 25 µM and 1% DMSO. First, inhibitor was serially diluted to the desired range of concentrations in 2% DMSO buffer. Next, 50 µL of inhibitor solutions at various concentrations in 2% DMSO Buffer was added to 50 μl of 0.8 nM enzyme and allowed to incubate at 25 °C for 5 min. 100 µL of 50 µM and 1% DMSO substrate was then added and reaction mixture was immediately mixed and aliquoted in 45 µL triplicates to a CORNING 384 well black plate. Fluorescence signal was measured continuously for 20 min at 37 °C in a BioTek Neo 2 Plate reader set at excitation and emission wavelengths of 572 and 610 nm, respectively. Max reaction rates for all inhibitor concentrations were calculated within Gen5 BioTek reader software. % Activity was subsequently calculated for each inhibitor concentration against the max reaction rate of uninhibited hOGA.

[3] = molecular target: β-hexosaminidase from bovine kidney; experiment: Commercial enzyme inhibition assay, β-hexosaminidase from bovine kidney; conditions: mean ± SD (n = 3); competitive
Experimental: as §1

[4] = molecular target: β-hexosaminidase from Jack bean; experiment: Commercial enzyme inhibition assay, β-hexosaminidase from Jack bean; conditions: mean ± SD (n = 3); competitive
Experimental: as §1

SMILES: CCCCNC(=S)N1C[C@H](NC(C)=O)[C@@H](O)[C@@H](O)[C@H]1CO [Compound 1, 2-Acetamido-1,2-dideoxy-5-N-(N’-butylthiocarbamoyl)galactonojirimycin]
- Ki [1]: 4800 ± 200 nM
- Ki [2]: > 100000 nM
- Ki [3]: 3500 ± 200 nM
- Ki [4]: 3000 ± 100 nM

SMILES: CCCCCCCCNC(=S)N1C[C@H](NC(C)=O)[C@@H](O)[C@@H](O)[C@H]1CO [Compound 2, 2-Acetamido-1,2-dideoxy-5-N-(N’-octylthiocarbamoyl)galactonojirimycin]
- Ki [1]: 3000 ± 100 nM
- Ki [2]: > 100000 nM
- Ki [3]: 2200 ± 100 nM
- Ki [4]: 7200 ± 200 nM

SMILES: CC(=O)N[C@H]1CN(C(=S)NCc2ccccc2)[C@H](CO)[C@H](O)[C@@H]1O [Compound 3, 2-Acetamido-1,2-dideoxy-5-N-(N’-benzylthiocarbamoyl)galactonojirimycin]
- Ki [1]: 16000 ± 500 nM
- Ki [2]: > 100000 nM
- Ki [3]: 6300 ± 200 nM
- Ki [4]: 5100 ± 200 nM

SMILES: CC(=O)N[C@H]1CN(C(=S)Nc2ccccc2)[C@H](CO)[C@H](O)[C@@H]1O [Compound 4, 2-Acetamido-1,2-dideoxy-5-N-(N’-phenylthiocarbamoyl)galactonojirimycin]
- Ki [1]: 240 nM
- Ki [2]: > 100000 nM
- Ki [3]: 140 ± 10 nM
- Ki [4]: 65 nM

SMILES: CCCCN=C1SCC2C(O)C(O)C(NC(C)=O)CN12 (stereo not drawn) [Compound 5, 2-Acetamido-1,2-dideoxy-5-N,6-S-(N’-butyliminomethylidene)-6-thiogalactonojirimycin]
- Ki [1]: 55 ± 2 nM
- Ki [2]: > 100000 nM
- Ki [3]: 24 ± 2 nM
- Ki [4]: 140 ± 10 nM

SMILES: CCCCCCCCN=C1SCC2C(O)C(O)C(NC(C)=O)CN12 (stereo not drawn) [Compound 6, 2-Acetamido-1,2-dideoxy-5-N,6-S-(N’-octyliminomethylidene)-6-thiogalactonojirimycin]
- Ki [1]: 26 ± 1 nM
- Ki [2]: > 100000 nM
- Ki [3]: 15 ± 1 nM
- Ki [4]: 48 ± 2 nM

SMILES: CC(=O)NC1CN2C(=NCc3ccccc3)SCC2C(O)C1O (stereo not drawn) [Compound 7, 2-Acetamido-1,2-dideoxy-5-N,6-S-(N’-benzyliminomethylidene)-6-thiogalactonojirimycin]
- Ki [1]: 26 ± 1 nM
- IC50 ([2]; read-out: IC50 against OGA): 25000 nM
- Ki [2]: 25000 nM
- Ki [3]: 20 ± 1 nM
- Ki [4]: 88 ± 3 nM

SMILES: CC(=O)NC1CN2C(=Nc3ccccc3)SCC2C(O)C1O (stereo not drawn) [Compound 8, 2-Acetamido-1,2-dideoxy-5-N,6-S-(N’-phenyliminomethylidene)-6-thiogalactonojirimycin]
- Ki [1]: 44 ± 2 nM
- Ki [2]: > 100000 nM
- Ki [3]: 46 ± 2 nM
- Ki [4]: 130 ± 10 nM
